Assay results as given in US3935309A, “Synergistic combinations of phosphonomycin and bacteriostatic agents” (Merck & Co., Inc., priority 1974, dated 1976).

System: Escherichia coli 2017
Test: Combined antibiotic therapy of Escherichia coli infection in mice (Example 5)
Type: in vivo, mice infected with Escherichia coli 2017
Text: For example, using Escherichia coli 2017 as the infecting agent, sodium phosphonomycin was titrated alone and in the presence 5 and also in the presence of 0.5γtetracycline, while tetracycline was titrated alone and in the presence of 50γ, and also in the presence of 5γof sodium phosphonomycin. The two drugs were given by the subcutaneous route at separate sites on the ventral surface of the mouse. Such therapy was given only at the time of infection for the Escherichia coli and Pseudomonas aeruginosa tests but both at the time of infection and 6 hours later for all other tests. Infection was given intraperitoneally using broth suspensions of the test organism.

[1] = chloramphenicol repeat test, 7 LD50, phosphonomycin titrated, chloramphenicol constant 5
[2] = chloramphenicol repeat test, 7 LD50, phosphonomycin titrated, chloramphenicol constant 50
[3] = chloramphenicol test 1, 9 LD50, phosphonomycin titrated, chloramphenicol constant 3
[4] = chloramphenicol test 1, 9 LD50, phosphonomycin titrated, chloramphenicol constant 30
[5] = tetracycline repeat test, 7 LD50, phosphonomycin titrated, tetracycline constant 1
[6] = tetracycline repeat test, 7 LD50, phosphonomycin titrated, tetracycline constant 10
[7] = tetracycline test 1, 9 LD50, alone
[8] = tetracycline test 1, 9 LD50, phosphonomycin titrated, tetracycline constant 0.5
[9] = tetracycline test 1, 9 LD50, phosphonomycin titrated, tetracycline constant 5

Structure (SMILES): C[C@@H]1O[C@@H]1P(=O)(O)O [Phosphonomycin, (-) (cis-1,2-epoxypropyl)phosphonic acid]
- % ED50 (chloramphenicol repeat test, 7 LD50, alone): 100%
- s.c. ED50 (chloramphenicol repeat test, 7 LD50, alone, single dose at 0 hour, phosphonomycin as sodium salt): 276 µg
- % ED50 (chloramphenicol repeat test, 7 LD50, chloramphenicol titrated, phosphonomycin constant 5): 2%
- % ED50 (chloramphenicol repeat test, 7 LD50, chloramphenicol titrated, phosphonomycin constant 50): 19%
- % ED50 [1]: 33%
- s.c. ED50 [1]: 92 µg
- % ED50 [2]: 9%
- s.c. ED50 [2]: 26 µg
- % ED50 (chloramphenicol test 1, 9 LD50, alone): 100%
- s.c. ED50 (chloramphenicol test 1, 9 LD50, alone, single dose at 0 hour, phosphonomycin as sodium salt): 905 µg
- % ED50 (chloramphenicol test 1, 9 LD50, chloramphenicol titrated, phosphonomycin constant 10): 1%
- % ED50 (chloramphenicol test 1, 9 LD50, chloramphenicol titrated, phosphonomycin constant 100): 11%
- % ED50 [3]: 100%
- s.c. ED50 [3]: 905 µg
- % ED50 [4]: 55%
- s.c. ED50 [4]: 500 µg
- % ED50 (tetracycline repeat test, 7 LD50, alone): 100%
- s.c. ED50 (tetracycline repeat test, 7 LD50, alone, single dose at 0 hour, phosphonomycin as sodium salt): 350 µg
- % ED50 [5]: 108%
- s.c. ED50 [5]: 380 µg
- % ED50 [6]: 111%
- s.c. ED50 [6]: 390 µg
- % ED50 (tetracycline repeat test, 7 LD50, tetracycline titrated, phosphonomycin constant 0.5): 2%
- % ED50 (tetracycline repeat test, 7 LD50, tetracycline titrated, phosphonomycin constant 50): 14%
- % ED50 [7]: 100%
- % ED50, Combined % [7]: 100%
- s.c. ED50 (tetracycline test 1, 9 LD50, alone, single dose at 0 hour, phosphonomycin as sodium salt): 1000 µg
- % ED50 [8]: 100%
- s.c. ED50 [8]: 1000 µg
- % ED50 [9]: 43%
- s.c. ED50 [9]: 427 µg
- % ED50 (tetracycline test 1, 9 LD50, tetracycline titrated, phosphonomycin constant 5): .5%
- % ED50 (tetracycline test 1, 9 LD50, tetracycline titrated, phosphonomycin constant 50): 5%
